Here are results for ten compounds from PubChem BioAssay (NCI).

Structures are written as SMILES.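 Values below derive from 48-hour exposures of cells grown in 96-well plates, with endpoints linearly interpolated between the two concentrations bracketing the appropriate inhibition level. At the TGI there is no net growth.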

Among the test systems are MDA-MB-435; RPMI-8226 leukemia; SW-620 colon; SK-OV-3 ovarian; OVCAR-5 ovarian; RXF 393 renal; ACHN renal; SK-MEL-28 melanoma; HS 578T breast; SNB-75 CNS; HCT-15 colon; LOX IMVI melanoma; M14 melanoma; SNB-19 CNS; OVCAR-3 ovarian; A498 renal.
Assay in all cases: DTP human tumour cell line panel, 48 h

By TGI is commonly meant the concentration at which net growth stops. As for `Cc1ccccc1Nc1nc2ccccc2nc1NS(=O)(=O)c1ccccc1`, the TGI with MDA-MB-435, in the experiment on RPMI-8226 leukemia, in the experiment with SW-620 colon, with SK-OV-3 ovarian, in the experiment with OVCAR-5 ovarian and in the experiment on RXF 393 renal was above 100 µM throughout. For the same compound, the total growth inhibition concentration (TGI) in the experiment on ACHN renal, with SK-MEL-28 melanoma, with HS 578T breast, in the experiment with SNB-75 CNS, in the experiment with HCT-15 colon and in the experiment with LOX IMVI melanoma was above 100 µM each time. For the same compound, the TGI in the experiment with M14 melanoma, with SNB-19 CNS and in the experiment on OVCAR-3 ovarian was above 100 µM each time.

For the compound `O=C1/C(=C/c2ccc(Cl)cc2)Oc2ccccc21`, the concentration for total growth inhibition (TGI) is above 100 µM in the experiment on MDA-MB-435; above 100 µM in the experiment with RPMI-8226 leukemia; above 100 µM with SW-620 colon; above 100 µM in the experiment with SK-OV-3 ovarian; 54.8 µM in the experiment on RXF 393 renal; 43.4 µM with ACHN renal. Further, the total growth inhibition concentration (TGI) in the experiment with SK-MEL-28 melanoma was above 100 µM; with HS 578T breast, 74.7 µM; in the experiment with SNB-75 CNS, 98.5 µM; in the experiment on HCT-15 colon it was above 100 µM; in the experiment with M14 melanoma it was above 100 µM; with SNB-19 CNS, above 100 µM. The concentration for total growth inhibition (TGI) in the experiment with OVCAR-3 ovarian was above 100 µM.

`Cc1nc(Cc2n[nH]c(C)n2)n[nH]1`: the TGI with MDA-MB-435, with RPMI-8226 leukemia, in the experiment with SW-620 colon, in the experiment with SK-OV-3 ovarian, in the experiment with OVCAR-5 ovarian and in the experiment with RXF 393 renal was above 100 µM each time. Also, the TGI in the experiment on ACHN renal, in the experiment on SNB-75 CNS, in the experiment with HCT-15 colon, with LOX IMVI melanoma, in the experiment with M14 melanoma and with SNB-19 CNS was above 100 µM each time. In the experiment on OVCAR-3 ovarian, this compound gave a concentration for total growth inhibition (TGI) above 100 µM.

For the compound `CCOC(=O)c1c(-c2ccccc2)c(C)cn1C`, the TGI in the experiment on MDA-MB-435, in the experiment with SK-OV-3 ovarian, in the experiment on OVCAR-5 ovarian, in the experiment on RXF 393 renal, in the experiment on ACHN renal and with HS 578T breast was above 10 µM throughout. In addition, the TGI in the experiment with SNB-75 CNS, in the experiment with HCT-15 colon, in the experiment on M14 melanoma, in the experiment on SNB-19 CNS and in the experiment on OVCAR-3 ovarian was above 10 µM in each case.

Consider `CC[C@]1(Cc2ccc(OC)c(OC)c2)C=[N+]([O-])O[C@H](OC2CCCC2(c2ccccc2)c2ccccc2)[C@@H]1OC(=O)C(C)(C)C` (stereo not given in full), for which the total growth inhibition concentration (TGI) in the experiment on MDA-MB-435 is 4.12 µM; with SW-620 colon, above 100 µM; with SK-OV-3 ovarian, above 86.1 µM; in the experiment on OVCAR-5 ovarian, above 39.9 µM; in the experiment with RXF 393 renal it was 3.53 µM; in the experiment on ACHN renal it was 5.25 µM. In addition, the TGI was 4.22 µM in the experiment with SK-MEL-28 melanoma; 28.7 µM in the experiment with HS 578T breast; 13.4 µM with SNB-75 CNS; 8.97 µM with HCT-15 colon; 4.18 µM in the experiment on LOX IMVI melanoma; above 40.8 µM in the experiment with M14 melanoma. Besides, the TGI amounted to 30.3 µM with SNB-19 CNS and 2.92 µM in the experiment on OVCAR-3 ovarian.

In the case of `c1cc2c(cc1[C@@H]1OC[C@@H]3[C@H]1CO[C@H]3c1ccc3c(c1)OCO3)OCO2`, the TGI in the experiment with MDA-MB-435, in the experiment on RPMI-8226 leukemia, with A498 renal, with SW-620 colon, with SK-OV-3 ovarian and with OVCAR-5 ovarian was above 100 µM in each case. For the same compound, the TGI was 89.3 µM in the experiment with RXF 393 renal; above 100 µM in the experiment with ACHN renal; above 100 µM with SK-MEL-28 melanoma; above 100 µM in the experiment on SNB-75 CNS; above 100 µM in the experiment with HCT-15 colon; above 100 µM in the experiment on LOX IMVI melanoma. Further, the TGI in the experiment with M14 melanoma, in the experiment on SNB-19 CNS and in the experiment on OVCAR-3 ovarian was above 100 µM throughout.

On to `NC(N)=NCCCC(NC(=O)c1c2ccccc2nc2ccccc12)C(=O)O` (stereo not given), for which the concentration for total growth inhibition (TGI) in the experiment on MDA-MB-435, in the experiment with RPMI-8226 leukemia, in the experiment on A498 renal, in the experiment with SW-620 colon, with SK-OV-3 ovarian and in the experiment on OVCAR-5 ovarian was above 100 µM each time. Besides, the concentration for total growth inhibition (TGI) in the experiment on ACHN renal, in the experiment with SK-MEL-28 melanoma, in the experiment on SNB-75 CNS, in the experiment on HCT-15 colon, in the experiment with LOX IMVI melanoma and in the experiment on M14 melanoma was above 100 µM throughout. The TGI with SNB-19 CNS and with OVCAR-3 ovarian was above 100 µM in each case.

With `Clc1ccc(C2=NCON=C2c2ccc(Cl)cc2)cc1`, the TGI in the experiment on RPMI-8226 leukemia was found to be 40.6 µM; with SW-620 colon it was 50.1 µM; in the experiment on SK-OV-3 ovarian it was 47.1 µM; in the experiment on OVCAR-5 ovarian, 90.7 µM; in the experiment with RXF 393 renal, 44.8 µM; with ACHN renal it was 54.9 µM. In addition, the total growth inhibition concentration (TGI) was 36.2 µM in the experiment on HS 578T breast; 74.2 µM in the experiment with SNB-75 CNS; 50.6 µM in the experiment with HCT-15 colon; 28.3 µM in the experiment with LOX IMVI melanoma; above 100 µM in the experiment on SNB-19 CNS; 46.6 µM with OVCAR-3 ovarian.

As for `COc1cc2c(cc1OC)C(=O)/C(=C/c1ccc(N(C)C)cc1)CC2`, the TGI with MDA-MB-435, in the experiment with RPMI-8226 leukemia, in the experiment on SW-620 colon, in the experiment with SK-OV-3 ovarian, in the experiment on OVCAR-5 ovarian and in the experiment on RXF 393 renal was above 10 µM each time. Besides, the TGI in the experiment on ACHN renal, in the experiment with SK-MEL-28 melanoma, with HS 578T breast, with HCT-15 colon, in the experiment on LOX IMVI melanoma and with M14 melanoma was above 10 µM throughout. Moreover, the concentration for total growth inhibition (TGI) in the experiment with SNB-19 CNS and in the experiment with OVCAR-3 ovarian was above 10 µM throughout.

In the case of `CC(=O)N1c2cc(N=NN(C)C)ccc2NC(=O)CC1C` (stereo not given), the TGI in the experiment on MDA-MB-435, in the experiment on RPMI-8226 leukemia, in the experiment on SW-620 colon, in the experiment with SK-OV-3 ovarian, with OVCAR-5 ovarian and with RXF 393 renal was above 100 µM throughout. The concentration for total growth inhibition (TGI) in the experiment on ACHN renal, in the experiment on SK-MEL-28 melanoma, in the experiment with HS 578T breast, in the experiment on SNB-75 CNS, in the experiment on HCT-15 colon and in the experiment on M14 melanoma was above 100 µM in each case. The TGI in the experiment with SNB-19 CNS and in the experiment on OVCAR-3 ovarian was above 100 µM throughout.
